Data as given in ChEMBL document CHEMBL4229513, “Decoy peptides derived from the extracellular domain of toll-like receptor 2 (TLR2) show anti-inflammatory properties” (Bioorg Med Chem, 2018).
One block for each compound: values may come before it. The source made the active and inactive calls. The rule behind the calls is not given here.

Key:
Type in all cases: cell-based
Toll-like receptor 1/2 [1] = target: T1, Toll-like receptor 1/2 (Homo sapiens, UniProt O60603+Q15399); assay: Antagonist activity at FLAG-tagged human TLR2/TLR1 expressed in HEK293 cells co-expressing pGL3-Elam.luc assessed as inhibition of Pam3CSK4-stimulated NF-kappaB activation at 50 uM preincubated for 1 hr followed by Pam3CSK4 stimulation for 5 hrs by luciferase reporter gene assay relative to control
Toll-like receptor 1/2 [2] = target: T1, Toll-like receptor 1/2; assay: Antagonist activity at FLAG-tagged human TLR2/TLR1 expressed in HEK293 cells assessed as inhibition of Pam3CSK4-stimulated IkBalpha degradation at 50 uM preincubated for 1 hr followed by Pam3CSK4 stimulation for 35 mins by immunoblot analysis
Toll-like receptor 1/2 [3] = target: T1, Toll-like receptor 1/2; assay: Antagonist activity at FLAG-tagged human TLR2/YFP-tagged TLR1 expressed in HEK293 cells assessed as inhibition of Pam3CSK4-stimulated TLR1/TLR2 heterodimerization at 25 uM preincubated for 1 hr followed by Pam3CSK4 stimulation for 15 mins by immunoblot analysis
[4] = target: T2, Toll-like receptor 1/2 (Mus musculus) (UniProt Q9QUN7+Q9EPQ1); assay: Antagonist activity at TLR2/TLR1 in mouse BMDM assessed as Rhodamine-labeled Pam3CSK4-stimulated receptor internalization at 50 uM preincubated for 1 hr followed by Rhodamine-Pam3CSK4 stimulation for 20 mins by FACS analysis relative to control; design: scale not given: the % may be the effect or the level left
Toll-like receptor 1/2 [5] = target: T1, Toll-like receptor 1/2; assay: Antagonist activity at FLAG-tagged human TLR2/TLR1 expressed in HEK293 cells co-expressing pGL3-Elam.luc assessed as Pam3CSK4-stimulated NF-kappaB activation at 50 uM preincubated for 1 hr followed by Pam3CSK4 stimulation for 5 hrs by luciferase reporter gene assay relative to control; design: scale not given: the % may be the effect or the level left
Toll-like receptor 1/2 [6] = target: T1, Toll-like receptor 1/2; assay: Antagonist activity at FLAG-tagged human TLR2/TLR1 expressed in HEK293 cells co-expressing pGL3-Elam.luc assessed as inhibition of Pam3CSK4-stimulated NF-kappaB activation preincubated for 1 hr followed by Pam3CSK4 stimulation for 5 hrs by luciferase reporter gene assay
[7] = target: T3, Toll-like receptor 3 (Mus musculus) (UniProt Q99MB1); assay: Antagonist activity at TLR3 in mouse BMDM assessed as inhibition of poly I:C-stimulated TNFalpha production at 25 uM preincubated for 1 hr followed by poly I:C stimulation for 11 hrs by ELISA
T3 sequence (whole entry): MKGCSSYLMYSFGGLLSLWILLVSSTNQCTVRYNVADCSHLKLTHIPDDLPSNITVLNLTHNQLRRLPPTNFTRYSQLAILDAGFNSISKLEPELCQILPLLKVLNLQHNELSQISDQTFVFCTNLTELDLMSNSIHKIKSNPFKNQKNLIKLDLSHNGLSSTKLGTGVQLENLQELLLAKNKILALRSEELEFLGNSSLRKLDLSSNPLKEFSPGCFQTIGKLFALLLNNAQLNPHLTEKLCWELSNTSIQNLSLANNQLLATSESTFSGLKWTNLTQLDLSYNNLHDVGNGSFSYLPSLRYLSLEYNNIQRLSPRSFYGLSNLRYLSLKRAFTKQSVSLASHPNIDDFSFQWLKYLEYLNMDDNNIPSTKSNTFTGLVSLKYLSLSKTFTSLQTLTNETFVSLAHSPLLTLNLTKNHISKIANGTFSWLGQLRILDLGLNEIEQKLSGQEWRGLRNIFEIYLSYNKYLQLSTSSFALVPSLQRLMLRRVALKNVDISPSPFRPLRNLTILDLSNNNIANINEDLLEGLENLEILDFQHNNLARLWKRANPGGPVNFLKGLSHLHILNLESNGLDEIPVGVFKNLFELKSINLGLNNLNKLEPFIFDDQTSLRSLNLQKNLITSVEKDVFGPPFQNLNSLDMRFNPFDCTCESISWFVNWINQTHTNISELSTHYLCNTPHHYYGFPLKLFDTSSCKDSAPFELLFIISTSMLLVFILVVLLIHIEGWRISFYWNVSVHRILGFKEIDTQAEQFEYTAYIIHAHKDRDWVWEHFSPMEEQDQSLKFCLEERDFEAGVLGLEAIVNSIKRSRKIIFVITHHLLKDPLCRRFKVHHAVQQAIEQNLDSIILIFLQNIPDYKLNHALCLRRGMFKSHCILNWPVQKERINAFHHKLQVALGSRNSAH

Toll-like receptor 1/2 [8] = target: T1, Toll-like receptor 1/2; assay: Antagonist activity at FLAG-tagged human TLR2/TLR1 expressed in HEK293 cells assessed as inhibition of Pam3CSK4-stimulated JNK phosphorylation at Thr183/Tyr185 residues at 50 uM preincubated for 1 hr followed by Pam3CSK4 stimulation for 35 mins by immunoblot analysis
HEK293 = assay: Cytotoxicity against HEK293 cells at 100 uM after overnight incubation by CCK8 assay; settings: human, hek293, 100 µM
THP-1 = assay: Cytotoxicity against human THP1 cells at 100 uM after overnight incubation by CCK8 assay; settings: thp-1, 100 µM
BMDM = assay: Cytotoxicity against mouse BMDM at 100 uM after overnight incubation by CCK8 assay
Toll-like receptor 1/2 [9] = target: T1, Toll-like receptor 1/2; assay: Antagonist activity at TLR2/TLR1 in human PBMC assessed as inhibition of Pam3CSK4-stimulated IL-10 production at 100 uM preincubated with cells followed by overnight Pam3CSK4 stimulation by ELISA
[10] = target: T2, Toll-like receptor 1/2 (Mus musculus); assay: Antagonist activity at TLR2/TLR1 in mouse BMDM assessed as inhibition of Rhodamine-labeled Pam3CSK4-stimulated receptor internalization at 50 uM preincubated for 1 hr followed by Rhodamine-Pam3CSK4 stimulation for 20 mins by DAPI staining based phase contrast fluorescence microscopic method
TLR2/TLR6 (Homo sapiens) = TLR2/TLR6 (Homo sapiens) (UniProt O60603+Q9Y2C9); assay: Antagonist activity at FLAG-tagged human TLR2/TLR6 expressed in HEK293 cells co-expressing pGL3-Elam.luc assessed as inhibition of Pam2CSK4-stimulated NF-kappaB activation preincubated for 1 hr followed by Pam2CSK4 stimulation for 5 hrs by luciferase reporter gene assay
Toll-like receptor 1/2 [11] = target: T1, Toll-like receptor 1/2; assay: Antagonist activity at TLR2/TLR1 in human PBMC assessed as inhibition of Pam3CSK4-stimulated TNFalpha production at 50 uM preincubated with cells followed by overnight Pam3CSK4 stimulation by ELISA relative to control
[12] = target: T2, Toll-like receptor 1/2 (Mus musculus); assay: Antagonist activity at TLR2/TLR1 in mouse BMDM assessed as inhibition of Pam3CSK4-stimulated TNFalpha production by measuring TNFalpha level at 25 uM preincubated for 1 hr followed by Pam3CSK4 stimulation for 11 hrs by ELISA relative to control; design: scale not given: the % may be the effect or the level left
[13] = target: T4, Toll-like receptor 4 (Mus musculus) (UniProt Q9QUK6); assay: Antagonist activity at TLR4 in mouse BMDM assessed as inhibition of LPS-stimulated TNFalpha production at 25 uM preincubated for 1 hr followed by LPS stimulation for 11 hrs by ELISA
T4 sequence (whole entry): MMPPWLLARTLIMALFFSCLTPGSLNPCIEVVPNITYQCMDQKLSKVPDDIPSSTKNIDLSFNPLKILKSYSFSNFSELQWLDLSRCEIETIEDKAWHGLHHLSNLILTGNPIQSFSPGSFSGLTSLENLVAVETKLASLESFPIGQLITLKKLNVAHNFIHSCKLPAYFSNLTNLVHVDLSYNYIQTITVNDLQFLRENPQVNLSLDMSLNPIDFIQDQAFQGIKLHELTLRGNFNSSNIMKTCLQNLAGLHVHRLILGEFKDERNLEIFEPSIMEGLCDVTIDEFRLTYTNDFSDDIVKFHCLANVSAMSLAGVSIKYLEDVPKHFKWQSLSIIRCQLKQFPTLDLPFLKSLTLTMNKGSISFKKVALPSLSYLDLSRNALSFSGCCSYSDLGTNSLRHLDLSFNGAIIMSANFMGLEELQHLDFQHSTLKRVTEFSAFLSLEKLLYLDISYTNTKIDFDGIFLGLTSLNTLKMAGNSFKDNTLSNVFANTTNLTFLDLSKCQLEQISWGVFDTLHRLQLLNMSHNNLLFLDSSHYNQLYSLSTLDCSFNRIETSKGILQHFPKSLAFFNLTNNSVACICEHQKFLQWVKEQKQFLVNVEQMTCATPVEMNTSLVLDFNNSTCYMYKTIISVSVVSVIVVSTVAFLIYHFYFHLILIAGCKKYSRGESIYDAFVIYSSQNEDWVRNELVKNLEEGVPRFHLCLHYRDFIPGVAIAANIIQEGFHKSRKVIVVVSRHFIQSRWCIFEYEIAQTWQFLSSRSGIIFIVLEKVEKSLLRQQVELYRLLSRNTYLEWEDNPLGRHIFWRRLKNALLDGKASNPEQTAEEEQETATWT

Toll-like receptor 1/2 [14] = target: T1, Toll-like receptor 1/2; assay: Antagonist activity at TLR2/TLR1 in human THP1 cells assessed as inhibition of Pam3CSK4-stimulated non-canonical NF-kB pathway by measuring reduction in p52 level at 50 uM preincubated for 1 hr followed by Pam3CSK4 stimulation for 2 hrs by immunoblot analysis
Toll-like receptor 1/2 [15] = target: T1, Toll-like receptor 1/2; assay: Antagonist activity at FLAG-tagged human TLR2/TLR1 expressed in HEK293 cells assessed as inhibition of Pam3CSK4-stimulated MAPK p38 phosphorylation at Thr180/Tyr182 residues at 50 uM preincubated for 1 hr followed by Pam3CSK4 stimulation for 35 mins by immunoblot analysis
[16] = target: TLR7 and TLR8 (Mus musculus) (UniProt P58681+P58682); assay: Antagonist activity at TLR7/TLR8 in mouse BMDM assessed as inhibition of R848-stimulated TNFalpha production at 25 uM preincubated for 1 hr followed by R848 stimulation for 11 hrs by ELISA
Toll-like receptor 1/2 [17] = target: T1, Toll-like receptor 1/2; assay: Antagonist activity at TLR2/TLR1 in human PBMC assessed as inhibition of Pam3CSK4-stimulated IL-10 production by measuring IL-10 level at 100 uM preincubated with cells followed by overnight Pam3CSK4 stimulation by ELISA (reference value: 794 pg/ml)
[18] = target: T2, Toll-like receptor 1/2 (Mus musculus); assay: Antagonist activity at TLR2/TLR1 in mouse BMDM assessed as inhibition of Rhodamine-labeled Pam3CSK4-stimulated receptor internalization at 1 uM preincubated for 1 hr followed by Rhodamine-Pam3CSK4 stimulation for 20 mins by FACS analysis
Toll-like receptor 1/2 [19] = target: T1, Toll-like receptor 1/2; assay: Antagonist activity at FLAG-tagged human TLR2/TLR1 expressed in HEK293 cells assessed as inhibition of Pam3CSK4-stimulated MAPK p38 phosphorylation at Thr180/Tyr182 residues at 25 uM preincubated for 1 hr followed by Pam3CSK4 stimulation for 35 mins by immunoblot analysis
Toll-like receptor 1/2 [20] = target: T1, Toll-like receptor 1/2; assay: Antagonist activity at FLAG-tagged human TLR2/TLR1 expressed in HEK293 cells assessed as inhibition of Pam3CSK4-stimulated JNK phosphorylation at Thr183/Tyr185 residues at 25 uM preincubated for 1 hr followed by Pam3CSK4 stimulation for 35 mins by immunoblot analysis

T1 sequence (O60603 whole entry): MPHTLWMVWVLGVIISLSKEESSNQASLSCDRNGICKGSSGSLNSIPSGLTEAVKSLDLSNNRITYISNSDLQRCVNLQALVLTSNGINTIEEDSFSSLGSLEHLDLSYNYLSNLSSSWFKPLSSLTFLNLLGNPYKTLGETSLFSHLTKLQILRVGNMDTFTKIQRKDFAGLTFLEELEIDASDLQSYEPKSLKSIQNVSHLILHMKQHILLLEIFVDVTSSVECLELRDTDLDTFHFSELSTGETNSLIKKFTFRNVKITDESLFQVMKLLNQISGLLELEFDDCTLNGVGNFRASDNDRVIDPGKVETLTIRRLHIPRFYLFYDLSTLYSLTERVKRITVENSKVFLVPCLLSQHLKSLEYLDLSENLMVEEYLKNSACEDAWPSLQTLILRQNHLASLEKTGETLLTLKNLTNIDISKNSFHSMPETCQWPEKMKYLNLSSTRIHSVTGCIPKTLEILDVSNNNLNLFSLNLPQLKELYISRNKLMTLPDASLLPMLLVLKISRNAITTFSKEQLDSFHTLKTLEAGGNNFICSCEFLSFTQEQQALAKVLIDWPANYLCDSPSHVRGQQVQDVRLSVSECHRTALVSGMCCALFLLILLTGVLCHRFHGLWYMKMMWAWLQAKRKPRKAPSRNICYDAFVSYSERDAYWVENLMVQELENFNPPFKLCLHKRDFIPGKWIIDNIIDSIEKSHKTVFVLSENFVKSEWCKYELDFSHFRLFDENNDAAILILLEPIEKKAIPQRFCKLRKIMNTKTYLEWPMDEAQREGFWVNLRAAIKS
T1 sequence (Q15399 whole entry): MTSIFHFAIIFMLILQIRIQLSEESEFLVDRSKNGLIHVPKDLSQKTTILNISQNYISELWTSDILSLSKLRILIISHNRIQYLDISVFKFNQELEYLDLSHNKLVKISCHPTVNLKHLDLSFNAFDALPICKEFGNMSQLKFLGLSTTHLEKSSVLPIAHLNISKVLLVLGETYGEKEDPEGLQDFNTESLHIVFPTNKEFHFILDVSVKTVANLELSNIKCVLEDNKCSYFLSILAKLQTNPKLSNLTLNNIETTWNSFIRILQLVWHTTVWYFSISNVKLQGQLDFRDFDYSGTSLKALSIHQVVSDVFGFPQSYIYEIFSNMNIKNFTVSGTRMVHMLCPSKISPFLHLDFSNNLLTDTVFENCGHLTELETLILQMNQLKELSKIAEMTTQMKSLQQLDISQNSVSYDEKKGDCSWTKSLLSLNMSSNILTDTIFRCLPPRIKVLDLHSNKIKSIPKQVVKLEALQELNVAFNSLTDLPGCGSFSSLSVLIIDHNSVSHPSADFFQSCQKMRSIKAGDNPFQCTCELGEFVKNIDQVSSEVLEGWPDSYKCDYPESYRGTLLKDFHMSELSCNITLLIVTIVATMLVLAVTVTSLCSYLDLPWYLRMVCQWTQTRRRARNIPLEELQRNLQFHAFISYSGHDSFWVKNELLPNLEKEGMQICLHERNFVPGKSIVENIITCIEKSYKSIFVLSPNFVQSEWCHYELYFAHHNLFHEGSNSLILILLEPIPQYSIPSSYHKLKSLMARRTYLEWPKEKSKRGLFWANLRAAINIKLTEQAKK
Chain of TLR7 and TLR8 (Mus musculus) (P58681 whole entry, looked up): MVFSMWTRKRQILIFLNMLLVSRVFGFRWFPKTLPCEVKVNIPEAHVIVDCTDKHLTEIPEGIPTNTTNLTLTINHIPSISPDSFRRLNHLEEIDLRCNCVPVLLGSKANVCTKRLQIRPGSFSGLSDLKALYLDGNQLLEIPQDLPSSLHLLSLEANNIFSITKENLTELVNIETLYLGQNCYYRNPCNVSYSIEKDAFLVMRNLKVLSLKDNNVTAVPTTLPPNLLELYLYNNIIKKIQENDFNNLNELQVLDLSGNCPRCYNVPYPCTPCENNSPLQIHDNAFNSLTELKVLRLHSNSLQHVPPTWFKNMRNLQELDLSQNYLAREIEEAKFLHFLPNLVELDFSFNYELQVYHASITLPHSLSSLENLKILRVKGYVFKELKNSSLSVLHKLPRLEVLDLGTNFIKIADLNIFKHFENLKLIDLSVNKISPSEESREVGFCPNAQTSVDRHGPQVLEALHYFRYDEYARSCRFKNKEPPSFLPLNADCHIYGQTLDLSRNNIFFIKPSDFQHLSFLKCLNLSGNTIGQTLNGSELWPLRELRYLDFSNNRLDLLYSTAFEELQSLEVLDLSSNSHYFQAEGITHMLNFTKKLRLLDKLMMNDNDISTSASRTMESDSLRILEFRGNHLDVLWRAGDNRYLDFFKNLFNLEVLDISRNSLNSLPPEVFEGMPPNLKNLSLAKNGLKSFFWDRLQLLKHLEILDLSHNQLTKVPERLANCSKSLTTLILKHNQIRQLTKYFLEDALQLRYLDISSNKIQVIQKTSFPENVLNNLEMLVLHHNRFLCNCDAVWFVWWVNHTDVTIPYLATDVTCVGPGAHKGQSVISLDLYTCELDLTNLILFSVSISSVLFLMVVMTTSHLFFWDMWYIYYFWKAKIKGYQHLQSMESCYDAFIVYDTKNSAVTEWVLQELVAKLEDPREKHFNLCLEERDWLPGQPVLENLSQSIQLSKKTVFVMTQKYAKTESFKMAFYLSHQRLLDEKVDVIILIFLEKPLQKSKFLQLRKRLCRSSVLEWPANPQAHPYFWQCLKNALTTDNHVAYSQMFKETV
Chain of TLR7 and TLR8 (Mus musculus) (P58682 whole entry, looked up): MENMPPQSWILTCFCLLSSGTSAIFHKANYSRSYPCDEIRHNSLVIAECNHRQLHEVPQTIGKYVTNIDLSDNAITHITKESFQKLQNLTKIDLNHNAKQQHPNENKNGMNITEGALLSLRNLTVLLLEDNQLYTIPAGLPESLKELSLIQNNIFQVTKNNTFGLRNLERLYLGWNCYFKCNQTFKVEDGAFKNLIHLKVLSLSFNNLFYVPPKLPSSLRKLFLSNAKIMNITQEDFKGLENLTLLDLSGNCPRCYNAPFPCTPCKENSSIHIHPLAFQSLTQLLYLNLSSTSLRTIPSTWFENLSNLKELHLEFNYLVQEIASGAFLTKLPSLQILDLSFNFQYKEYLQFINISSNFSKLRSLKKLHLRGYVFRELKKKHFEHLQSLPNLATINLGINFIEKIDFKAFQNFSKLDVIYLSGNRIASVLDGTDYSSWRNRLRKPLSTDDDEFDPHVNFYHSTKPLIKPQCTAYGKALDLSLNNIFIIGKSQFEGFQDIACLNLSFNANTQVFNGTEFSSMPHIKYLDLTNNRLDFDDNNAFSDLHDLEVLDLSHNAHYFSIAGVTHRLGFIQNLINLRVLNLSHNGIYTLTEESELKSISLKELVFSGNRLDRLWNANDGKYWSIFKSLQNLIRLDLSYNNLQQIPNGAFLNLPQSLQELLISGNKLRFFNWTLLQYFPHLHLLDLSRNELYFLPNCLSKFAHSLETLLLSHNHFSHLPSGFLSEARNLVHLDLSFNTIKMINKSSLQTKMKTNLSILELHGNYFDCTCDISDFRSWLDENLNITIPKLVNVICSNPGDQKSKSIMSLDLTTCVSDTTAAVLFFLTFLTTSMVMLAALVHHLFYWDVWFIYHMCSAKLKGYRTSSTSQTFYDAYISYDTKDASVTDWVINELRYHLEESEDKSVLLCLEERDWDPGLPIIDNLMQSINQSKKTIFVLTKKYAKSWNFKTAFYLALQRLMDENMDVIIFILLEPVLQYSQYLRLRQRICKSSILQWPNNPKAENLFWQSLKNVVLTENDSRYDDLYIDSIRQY

Compound: H-RLHIPRFYL-OH
- inhibition (Toll-like receptor 1/2 [1]): 81.9%

Compound: H-LHIPRFYLFYD-OH
- inhibition (Toll-like receptor 1/2 [1]): 56%

Compound: H-VVSDVFGFP-OH
- inhibition (Toll-like receptor 1/2 [1]): Active

Compound: H-TIRRLHIPR-OH
- inhibition (Toll-like receptor 1/2 [1]): 84.1%

Compound: H-HIPRFYLFY-OH
- inhibition (Toll-like receptor 1/2 [1]): 56%

Compound: C=C1[C@@H](C)[C@H]2[C@H](Cc3ccccc3)NC(=O)[C@]23[C@H](OC(C)=O)/C=C/[C@@](C)(O)C(=O)[C@@H](C)C/C=C/[C@H]3[C@@H]1O
- inhibition [18]: Active

Compound: H-VETLTIRRL-OH
- inhibition (Toll-like receptor 1/2 [1]): 86%

Compound: H-ENLMVEEY-OH
- inhibition (Toll-like receptor 1/2 [1]): 66%

Further lines, with some results ahead:

- inhibition (Toll-like receptor 1/2 [1]): Active
Compound: H-ENSKVFLVPC-OH

- inhibition (Toll-like receptor 1/2 [2]): inactive
- inhibition (Toll-like receptor 1/2 [3]): Active
- Activity [4]: 37.4%
- Activity (Toll-like receptor 1/2 [5]): 51%
- IC50 (Toll-like receptor 1/2 [6]): 49.2 µM
- inhibition (Toll-like receptor 1/2 [6]): Dose-dependent effect
- inhibition [7]: inactive
- inhibition (Toll-like receptor 1/2 [8]): Active
- inhibition (Toll-like receptor 1/2 [9]): Active
- inhibition [10]: Active
- inhibition (TLR2/TLR6 (Homo sapiens)): inactive
- inhibition (Toll-like receptor 1/2 [11]): 50%
- Activity [12]: 70%
- inhibition [13]: inactive
- inhibition (Toll-like receptor 1/2 [14]): Active
- inhibition (Toll-like receptor 1/2 [15]): Active
- inhibition [16]: inactive
Compound: H-HIPRFYLFYD-OH
- Activity (HEK293): Non-Toxic
- Activity (THP-1): Non-Toxic
- Activity (BMDM): Non-Toxic

- inhibition (Toll-like receptor 1/2 [2]): inactive
- inhibition (Toll-like receptor 1/2 [3]): Active
- Activity [4]: 70.2%
- Activity (Toll-like receptor 1/2 [5]): 51%
- IC50 (Toll-like receptor 1/2 [6]): 45.8 µM
- inhibition (Toll-like receptor 1/2 [6]): Dose-dependent effect
- inhibition [7]: inactive
- inhibition (Toll-like receptor 1/2 [8]): Active
- inhibition [10]: Active
- inhibition (TLR2/TLR6 (Homo sapiens)): inactive
- inhibition (Toll-like receptor 1/2 [11]): 50%
- Activity [12]: 80%
- inhibition [13]: inactive
- Activity (Toll-like receptor 1/2 [17]): 727 pg/mL
- inhibition (Toll-like receptor 1/2 [14]): Active
- inhibition (Toll-like receptor 1/2 [15]): Active
- inhibition [16]: inactive
Compound: H-ENLMVEEYLK-OH
- Activity (HEK293): Non-Toxic
- Activity (THP-1): Non-Toxic
- Activity (BMDM): Non-Toxic

- inhibition (Toll-like receptor 1/2 [1]): 56%
Compound: H-SENLMVEEYLK-OH

- inhibition (Toll-like receptor 1/2 [19]): Active
- inhibition (Toll-like receptor 1/2 [20]): Active
Compound: Cc1cc(NC(=O)NC(=O)c2ccccc2N(C)C)ccc1Oc1ncc(Br)cn1
